# Reference: patent US20050112573A1, “Method of detecting toxic substance” (priority 2001, published 2005)
# Tested on: yeast genes (level of expressed mRNA)
# Test: DNA chip analysis of expressed mRNA of yeast genes after 2 h culture with a toxic chemical substance
# Assay type: cell-based, Saccharomyces cerevisiae S288C
# Experimental: Yeast (Saccharomyces cerevtisiae S288C (α SUC2mal mel gap2 CUP1)) were cultured at 25° C. on YPD medium (yeast extract 1%, polypepton 2%, glucose 2%). One of toxic chemical substances was added to the cell at logarithmic growth phase, and the cell was further cultured for two hours. Cell was cultured without any chemical substance in the same condition, and was used as control. Concentrations of the chemical substances were defined to inhibit the growth of the yeast but not lead to death.
# After the completion of cultivation, the culture was centrifuged to collect the cells. To the cells, sodium acetate buffer (50 mM sodium acetate, 10 mM EDTA, 1% SDS) was added, and the mixture was shaken at 65° C. for five minutes, followed by returning to room temperature, and obtaining the supernatant, which procedure was repeated two times. To the supernatant, ½ amount of a solution of phenol/chloroform was added, and the mixture was centrifuged to give a supernatant, which was added with an equal amount of chloroform, and the mixture was centrifuged to give a supernatant. To the supernatant, an equal amount of isopropanol containing 0.3 M sodium acetate was added, and the mixture was allowed to stand at room temperature for 30 minutes, after which the mixture was centrifuged to give a sediment of the whole RNAs. Seventy % ethanol was added to the sediment, and the mixture was again centrifuged to give a sediment, which was then dried and dissolved in water. mRNA was isolated from the whole RNAs as followings. In view of the fact that a poly A chain is attached to the 3′ terminus of mRNA, a polynucleotide having a poly T structure which was immobilized on the surface of latex beads was used to trap the mRNA, and then the mRNA was washed and eluted with spine column (Oligotex-dT30<Super>mRNA Purification Kit, Takara). Reverse transcription of the mRNA was conducted with a reverse transcriptase (Super Script II Reverse Transcriptase; catalogue No. 18064-014, GibcoBRL) using fluorescence-labeled nucleotides to give cDNAs that were introduced with Cy3-dUTP or Cy5-dUTP during the reverse transcription.
# The labeled cDNAs were dissolved in TE buffer (10 mM Tris-HCl/1 mM EDTA, pH8.0), and the solution was dropped on the DNA chip containing the whole genes of yeast (DNA Chip Research Inc. Japan) so that the cDNAs were hybridized on the DNA chip at 65° C. for over 12 hours. The fluoresces intensity of the DNA chip was read with a scanner, and the ratio relative to the fluorescence intensity resulting from the absence of chemical substance was estimated as the following, which is shown in Tables 1 to 9: [formula]
# In the Tables, “Intensity” indicated in the rightmost column is a value of the level of expressed mRNA of each gene in control cells as divided by the average level of the expressions of the whole genes.
compound,measurement,setting,value
"CCCCC[C@H](O)CC(=O)CCc1ccc(O)c(OC)c1 [(13), gingerol]",The level of expressed mRNA in the presence of chemical substance/absence: YML029W,gene YML029W,2.0
same,The level of expressed mRNA in the presence of chemical substance/absence: YML041C,gene YML041C,1.2
same,The level of expressed mRNA in the presence of chemical substance/absence: YML079W,gene YML079W,1.6
same,level of expressed mRNA in the presence of chemical substance/in its absence,gene YML110C,1.8
same,The level of expressed mRNA in the presence of chemical substance/absence: YML118W,gene YML118W,1.7
same,The level of expressed mRNA in the presence of chemical substance/absence: YMR068W,gene YMR068W,1.4
same,The level of expressed mRNA in the presence of chemical substance/absence: YMR071C,gene YMR071C,1.3
same,level of expressed mRNA in the presence of chemical substance/in its absence,gene YMR105C,3.3
same,The level of expressed mRNA in the presence of chemical substance/absence: YMR114C,gene YMR114C,1.1
same,The level of expressed mRNA in the presence of chemical substance/absence: YMR115W,gene YMR115W,1.3
same,The level of expressed mRNA in the presence of chemical substance/absence: YMR160W,gene YMR160W,1.6
same,level of expressed mRNA in the presence of chemical substance/in its absence,gene YMR189W,0.9
same,The level of expressed mRNA in the presence of chemical substance/absence: YMR258C,gene YMR258C,1.6
same,level of expressed mRNA in the presence of chemical substance/in its absence,gene YMR271C,3.6
same,level of expressed mRNA in the presence of chemical substance/in its absence,gene YMR272C,1.2
same,level of expressed mRNA in the presence of chemical substance/in its absence,gene YMR296C,0.9
same,level of expressed mRNA in the presence of chemical substance/in its absence,gene YNL012W,2.9
same,The level of expressed mRNA in the presence of chemical substance/absence: YNL026W,gene YNL026W,1.7
same,level of expressed mRNA in the presence of chemical substance/in its absence,gene YNL037C,1.9
same,level of expressed mRNA in the presence of chemical substance/in its absence,gene YNL045W,2.6
same,The level of expressed mRNA in the presence of chemical substance/absence: YNL058C,gene YNL058C,0.6
same,The level of expressed mRNA in the presence of chemical substance/absence: YNL063W,gene YNL063W,1.5
same,level of expressed mRNA in the presence of chemical substance/in its absence,gene YNL104C,2.1
same,level of expressed mRNA in the presence of chemical substance/in its absence,gene YNL106C,0.9
same,level of expressed mRNA in the presence of chemical substance/in its absence,gene YNL130C,1.9
same,level of expressed mRNA in the presence of chemical substance/in its absence,gene YNL169C,1.7
same,The level of expressed mRNA in the presence of chemical substance/absence: YNL176C,gene YNL176C,0.6
same,The level of expressed mRNA in the presence of chemical substance/absence: YNL181W,gene YNL181W,1.8
same,The level of expressed mRNA in the presence of chemical substance/absence: YNL191W,gene YNL191W,0.6
same,The level of expressed mRNA in the presence of chemical substance/absence: YNL194C,gene YNL194C,1.5
same,The level of expressed mRNA in the presence of chemical substance/absence: YNL200C,gene YNL200C,1.1
same,The level of expressed mRNA in the presence of chemical substance/absence: YNL212W,gene YNL212W,1.3
same,level of expressed mRNA in the presence of chemical substance/in its absence,gene YNL231C,2.9
same,The level of expressed mRNA in the presence of chemical substance/absence: YNL253W,gene YNL253W,1.1
same,The level of expressed mRNA in the presence of chemical substance/absence: YNL265C,gene YNL265C,2.0
same,The level of expressed mRNA in the presence of chemical substance/absence: YNL276C,gene YNL276C,1.5
same,level of expressed mRNA in the presence of chemical substance/in its absence,gene YNL322C,0.8
same,level of expressed mRNA in the presence of chemical substance/in its absence,gene YNR002C,2.1
same,level of expressed mRNA in the presence of chemical substance/in its absence,gene YNR019W,2.1
same,level of expressed mRNA in the presence of chemical substance/in its absence,gene YNR033W,3.8
same,The level of expressed mRNA in the presence of chemical substance/absence: YNR051C,gene YNR051C,2.1
same,level of expressed mRNA in the presence of chemical substance/in its absence,gene YNR059W,2.4
same,The level of expressed mRNA in the presence of chemical substance/absence: YOL026C,gene YOL026C,1.2
same,The level of expressed mRNA in the presence of chemical substance/absence: YOL030W,gene YOL030W,1.7
same,level of expressed mRNA in the presence of chemical substance/in its absence,gene YOL058W,1.2
same,level of expressed mRNA in the presence of chemical substance/in its absence,gene YOL126C,2.6
same,level of expressed mRNA in the presence of chemical substance/in its absence,gene YOL143C,1.2
same,level of expressed mRNA in the presence of chemical substance/in its absence,gene YOL153C,2.9
same,level of expressed mRNA in the presence of chemical substance/in its absence,gene YOL157C,1.4
same,The level of expressed mRNA in the presence of chemical substance/absence: YOR022C,gene YOR022C,1.7
same,The level of expressed mRNA in the presence of chemical substance/absence: YOR087W,gene YOR087W,1.2
same,The level of expressed mRNA in the presence of chemical substance/absence: YOR088W,gene YOR088W,0.4
same,level of expressed mRNA in the presence of chemical substance/in its absence,gene YOR099W,1.6
same,level of expressed mRNA in the presence of chemical substance/in its absence,gene YOR130C,2.1
same,level of expressed mRNA in the presence of chemical substance/in its absence,gene YOR136W,1.5
same,The level of expressed mRNA in the presence of chemical substance/absence: YOR138C,gene YOR138C,1.8
same,The level of expressed mRNA in the presence of chemical substance/absence: YOR253W,gene YOR253W,0.5
